Assay results from patent US4755513A, “Antimicrobial 1-substituted phenyl-4-oxoquinoline-3-carboxylic acid compounds” (Otsuka Pharmaceutical Company, Limited, priority 1985, dated 1988).

Legend:
Assay in all cases: MIC by serial dilution method on agar plate
Type in all cases: cell-based
[1] = test system: Staphylococcus pyrogens IID S-23; conditions: 1 × 10^8 cells/ml
From the text: (§1) The microorganisms were used in a concentration of 1×10^8 cells/ml (O.D. 660 mμ, 0.07-0.16) and 1×10^6 cells/ml (100 folds dilution).

[2] = test system: Staphylococcus aureus FDA 209P
From the text: as §1

[3] = test system: Pseudomonas aeruginosa E-2
From the text: (§2) Chemotherapy, 22, 1126-1128 (1974)]. The microorganisms were used in a concentration of 1×10^8 cells/ml (O.D. 660 mμ, 0.07-0.16) and 1×10^6 cells/ml (100 folds dilution).

[4] = test system: Escherichia coli NIHJ JC-2
From the text: as §2

[5] = test system: Acinetobacter calcoaceticus AC-54
From the text: as §2

[6] = test system: Proteus inconstans IFO 12930
From the text: as §2

[7] = test system: Pseudomonas aeruginosa ATCC 10145
From the text: as §2

[8] = test system: Streptococcus faecalis IFO 12580
From the text: as §2

[9] = test system: Bacillus subtilis ATCC 6633
From the text: as §2

[10] = test system: Klebsiella pneumoniae NCTC 9632
From the text: as §2

[11] = test system: Serratia marcescens IFO 12648
From the text: as §2

[12] = test system: Proteus morganii IID Kono
From the text: as §2

[13] = test system: Escherichia coli No. 29
From the text: as §2

6,8-Difluoro-1-(4-hydroxyphenyl)-7-(1-piperazinyl)-1,4-dihydro-4-oxoquinoline-3-carboxylic acid [Example 2]
minimum inhibitory concentration (MIC) [1]: 12.5 | minimum inhibitory concentration (MIC) ([2]; 1 × 10^6 cells/ml): 0.195 | minimum inhibitory concentration (MIC) ([2]; 1 × 10^8 cells/ml): 0.39 | minimum inhibitory concentration (MIC) ([3]; 1 × 10^6 cells/ml): 0.781 | minimum inhibitory concentration (MIC) ([3]; 1 × 10^8 cells/ml): 1.56 | minimum inhibitory concentration (MIC) ([4]; 1 × 10^6 cells/ml): < 0.048 | minimum inhibitory concentration (MIC) ([4]; 1 × 10^8 cells/ml): < 0.048 | minimum inhibitory concentration (MIC) ([5]; 1 × 10^6 cells/ml): 0.195 | minimum inhibitory concentration (MIC) ([5]; 1 × 10^8 cells/ml): 0.39 | minimum inhibitory concentration (MIC) ([6]; 1 × 10^6 cells/ml): 0.195 | minimum inhibitory concentration (MIC) ([6]; 1 × 10^8 cells/ml): 0.39 | minimum inhibitory concentration (MIC) ([7]; 1 × 10^6 cells/ml): 0.781 | minimum inhibitory concentration (MIC) ([7]; 1 × 10^8 cells/ml): 1.56 | minimum inhibitory concentration (MIC) ([8]; 1 × 10^6 cells/ml): 3.12 | minimum inhibitory concentration (MIC) ([8]; 1 × 10^8 cells/ml): 6.25 | minimum inhibitory concentration (MIC) ([9]; 1 × 10^6 cells/ml): 0.097 | minimum inhibitory concentration (MIC) ([9]; 1 × 10^8 cells/ml): 0.195 | minimum inhibitory concentration (MIC) ([10]; 1 × 10^6 cells/ml): < 0.048 | minimum inhibitory concentration (MIC) ([10]; 1 × 10^8 cells/ml): < 0.048 | minimum inhibitory concentration (MIC) ([11]; 1 × 10^6 cells/ml): 0.097 | minimum inhibitory concentration (MIC) ([11]; 1 × 10^8 cells/ml): 0.195 | minimum inhibitory concentration (MIC) ([12]; 1 × 10^6 cells/ml): 0.048 | minimum inhibitory concentration (MIC) ([12]; 1 × 10^8 cells/ml): 0.097 | minimum inhibitory concentration (MIC) ([13]; 1 × 10^6 cells/ml): < 0.048 | minimum inhibitory concentration (MIC) ([13]; 1 × 10^8 cells/ml): < 0.048
